Columns and labels:
Hepatitis C virus [1] = experiment: Inhibition of HCV replicase complex in cell-free assay; settings: Hepacivirus hominis
Hepatitis C virus [2] = experiment: Antiviral activity against HCV by replicon assay
[3] = Ratio of CC50 for Huh7 cells to EC50 for HCV; format: functional, Huh-7

SMILES | IC50 (Hepatitis C virus [1]) [µM] | EC50 (Hepatitis C virus [2]) [nM] | Ratio CC50/EC50 [3]
NC(=O)c1c(NC(=O)CCc2ccccc2)sc2c1CCCC2 | > 100 | – | –
CCc1c(C)sc(NC(=O)CCc2ccccc2)c1C(N)=O | 50 | 920 | 3
CCC1CCc2c(sc(NC(=O)CCc3ccccc3)c2C#N)C1 (stereo not given) | > 100 | – | –
CCOC(=O)c1c(NC(=O)CCc2ccccc2)sc(C)c1CC | > 100 | – | –
CC1CCc2c(sc(NC(=O)CCc3ccccc3)c2C(N)=O)C1 (stereo not given) | > 100 | – | –
CCc1c(C)sc(NC(=O)CCc2ccccc2)c1C#N | 25 | 1660 | 3
CCc1c(C)sc(NC(=O)CCc2ccccc2)c1C(=O)O | > 100 | – | –
Cc1sc(NC(=O)CCc2ccccc2)c(C(N)=O)c1C | > 100 | – | –
CCC1CCc2c(sc(NC(=O)CCc3ccccc3)c2C(N)=O)C1 (stereo not given) | 30 | 1950 | 3

Reference: ChEMBL document CHEMBL1139994, “Discovery of novel dialkyl substituted thiophene inhibitors of HCV by in silico screening of the NS5B RdRp” (Bioorg Med Chem Lett, 2007)
